Experimental data: patent US12077503B2, “Substituted cyclic amides and their use as herbicides” (FMC CORPORATION, priority 2015, dated 2024)

Experiments:
Format in all cases: in vivo
[1] = system: barnyardgrass (Echinochloa crus-galli); assay: Test G Pre-Emergence Protocol; settings: Echinochloa crus-galli, pre-emergence, 312 h, evaluated after 13 days; for pest or weed control at 15.625 g/ha: 15.625 g ai/ha; for pest or weed control at 15.625 g/ha / pest or weed control at 250 g/ha: read-out: Barnyardgrass damage rating (100=total damage to plant; 0=no damage to plant); for pest or weed control at 62.5 g/ha: 62.5 g ai/ha, 100=total damage to plant, 0=no damage to plant, read-out: Barnyardgrass damage rating; for pest or weed control at 250 g/ha: 250 g ai/ha
How it was run: (§1)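 Glasshouse pre-emergence test: soil-sown seeds, sprayed after 1 d at 15.625, 62.5 or 250 g/ha. Conditions 24/16° C day/night, 14 h light, 65% humidity, watering twice daily. Rating 13 d post-spray (100 = total damage).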

corn (Zea mays) [2] = assay: Test G Pre-Emergence Protocol; settings: Zea mays, pre-emergence, 312 h, evaluated after 13 days; for plant injury at 15.625 g/ha: 15.625 g ai/ha; for plant injury at 15.625 g/ha / plant injury at 250 g/ha: read-out: Corn damage rating (100=total damage to plant; 0=no damage to plant); for plant injury at 62.5 g/ha: 62.5 g ai/ha, 100=total damage to plant, 0=no damage to plant, read-out: Corn damage rating; for plant injury at 250 g/ha: 250 g ai/ha
How it was run: as §1

[3] = system: giant foxtail (Setaria faberi); assay: Test G Pre-Emergence Protocol; settings: Setaria faberi, pre-emergence, 312 h, evaluated after 13 days; for pest or weed control at 15.625 g/ha: 15.625 g ai/ha; for pest or weed control at 15.625 g/ha / pest or weed control at 250 g/ha: read-out: Foxtail, Giant damage rating (100=total damage to plant; 0=no damage to plant); for pest or weed control at 62.5 g/ha: 62.5 g ai/ha, 100=total damage to plant, 0=no damage to plant, read-out: Foxtail, Giant damage rating; for pest or weed control at 250 g/ha: 250 g ai/ha
How it was run: as §1

[4] = system: ivy-leaved morning glory (Ipomoea hederacea); assay: Test G Pre-Emergence Protocol; settings: Ipomoea, pre-emergence, 312 h, evaluated after 13 days; for pest or weed control at 15.625 g/ha: 15.625 g ai/ha; for pest or weed control at 15.625 g/ha / pest or weed control at 250 g/ha: read-out: Morningglory, Ivy-leaved damage rating (100=total damage to plant; 0=no damage to plant); for pest or weed control at 62.5 g/ha: 62.5 g ai/ha, 100=total damage to plant, 0=no damage to plant, read-out: Morningglory, Ivy-leaved damage rating; for pest or weed control at 250 g/ha: 250 g ai/ha
How it was run: as §1

[5] = system: redroot pigweed (Amaranthus retroflexus); assay: Test G Pre-Emergence Protocol; settings: Amaranthus retroflexus, pre-emergence, 312 h, evaluated after 13 days; for pest or weed control at 15.625 g/ha: 15.625 g ai/ha; for pest or weed control at 15.625 g/ha / pest or weed control at 250 g/ha: read-out: Pigweed, Redroot damage rating (100=total damage to plant; 0=no damage to plant); for pest or weed control at 62.5 g/ha: 62.5 g ai/ha, 100=total damage to plant, 0=no damage to plant, read-out: Pigweed, Redroot damage rating; for pest or weed control at 250 g/ha: 250 g ai/ha
How it was run: as §1

[6] = system: velvetleaf (Abutilon theophrasti); assay: Test G Pre-Emergence Protocol; settings: Abutilon theophrasti, pre-emergence, 312 h, evaluated after 13 days; for pest or weed control at 15.625 g/ha: 15.625 g ai/ha; for pest or weed control at 15.625 g/ha / pest or weed control at 250 g/ha: read-out: Velvetleaf damage rating (100=total damage to plant; 0=no damage to plant); for pest or weed control at 62.5 g/ha: 62.5 g ai/ha, 100=total damage to plant, 0=no damage to plant, read-out: Velvetleaf damage rating; for pest or weed control at 250 g/ha: 250 g ai/ha
How it was run: as §1

[7] = system: barnyardgrass (Echinochloa crus-galli); assay: Test G Post-Emergence Protocol; settings: Echinochloa crus-galli, post-emergence, 312 h, read-out: Barnyardgrass damage rating; for pest or weed control at 15.625 g/ha: 15.625 g ai/ha, evaluated after 13 days (100=total damage to plant; 0=no damage to plant); for pest or weed control at 62.5 g/ha: 62.5 g ai/ha; for pest or weed control at 62.5 g/ha / pest or weed control at 250 g/ha: evaluated after 13 days, 100=total damage to plant, 0=no damage to plant; for pest or weed control at 250 g/ha: 250 g ai/ha
How it was run: (§2)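 Scores run 0 (no damage) to 100 (total damage) and were taken 13 days after spraying. Plants had been raised in pots for 8 days under glasshouse control (24/16 °C, 14 h photoperiod, 65% humidity) and then treated at 15.625, 62.5 or 250 g/ha.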

corn (Zea mays) [8] = assay: Test G Post-Emergence Protocol; settings: Zea mays, post-emergence, 312 h, read-out: Corn damage rating; for plant injury at 15.625 g/ha: 15.625 g ai/ha, evaluated after 13 days (100=total damage to plant; 0=no damage to plant); for plant injury at 62.5 g/ha: 62.5 g ai/ha; for plant injury at 62.5 g/ha / plant injury at 250 g/ha: evaluated after 13 days, 100=total damage to plant, 0=no damage to plant; for plant injury at 250 g/ha: 250 g ai/ha
How it was run: as §2

[9] = system: giant foxtail (Setaria faberi); assay: Test G Post-Emergence Protocol; settings: Setaria faberi, post-emergence, 312 h, read-out: Foxtail, Giant damage rating; for pest or weed control at 15.625 g/ha: 15.625 g ai/ha, evaluated after 13 days (100=total damage to plant; 0=no damage to plant); for pest or weed control at 62.5 g/ha: 62.5 g ai/ha
How it was run: as §2

[10] = system: ivy-leaved morning glory (Ipomoea hederacea); assay: Test G Post-Emergence Protocol; settings: Ipomoea, post-emergence, 312 h, read-out: Morningglory, Ivy-leaved damage rating; for pest or weed control at 15.625 g/ha: 15.625 g ai/ha, evaluated after 13 days (100=total damage to plant; 0=no damage to plant); for pest or weed control at 62.5 g/ha: 62.5 g ai/ha; for pest or weed control at 62.5 g/ha / pest or weed control at 250 g/ha: evaluated after 13 days, 100=total damage to plant, 0=no damage to plant; for pest or weed control at 250 g/ha: 250 g ai/ha
How it was run: as §2

[11] = system: redroot pigweed (Amaranthus retroflexus); assay: Test G Post-Emergence Protocol; settings: Amaranthus retroflexus, post-emergence, 312 h, read-out: Pigweed, Redroot damage rating; for pest or weed control at 15.625 g/ha: 15.625 g ai/ha, evaluated after 13 days (100=total damage to plant; 0=no damage to plant); for pest or weed control at 62.5 g/ha: 62.5 g ai/ha; for pest or weed control at 62.5 g/ha / pest or weed control at 250 g/ha: evaluated after 13 days, 100=total damage to plant, 0=no damage to plant; for pest or weed control at 250 g/ha: 250 g ai/ha
How it was run: as §2

[12] = system: velvetleaf (Abutilon theophrasti); assay: Test G Post-Emergence Protocol; settings: Abutilon theophrasti, post-emergence, 312 h, read-out: Velvetleaf damage rating; for pest or weed control at 15.625 g/ha: 15.625 g ai/ha, evaluated after 13 days (100=total damage to plant; 0=no damage to plant); for pest or weed control at 62.5 g/ha: 62.5 g ai/ha; for pest or weed control at 62.5 g/ha / pest or weed control at 250 g/ha: evaluated after 13 days, 100=total damage to plant, 0=no damage to plant; for pest or weed control at 250 g/ha: 250 g ai/ha
How it was run: as §2

[13] = evaluated after 13 days, 100=total damage to plant, 0=no damage to plant

Structure (SMILES): CCOc1cc([C@@H]2CN(C)C(=O)[C@H]2C(=O)Nc2cccc(F)c2F)cc(C(F)(F)F)n1 (racemic) [Compound 1753]
- pest or weed control at 15.625 g/ha [1]: 30%
- pest or weed control at 62.5 g/ha [1]: 70%
- pest or weed control at 250 g/ha [1]: 80%
- plant injury at 15.625 g/ha (corn (Zea mays) [2]): 0%
- plant injury at 62.5 g/ha (corn (Zea mays) [2]): 0%
- plant injury at 250 g/ha (corn (Zea mays) [2]): 60%
- pest or weed control at 15.625 g/ha [3]: 70%
- pest or weed control at 62.5 g/ha [3]: 80%
- pest or weed control at 250 g/ha [3]: 90%
- pest or weed control at 15.625 g/ha [4]: 0%
- pest or weed control at 62.5 g/ha [4]: 0%
- pest or weed control at 250 g/ha [4]: 80%
- pest or weed control at 15.625 g/ha [5]: 0%
- pest or weed control at 62.5 g/ha [5]: 0%
- pest or weed control at 250 g/ha [5]: 60%
- pest or weed control at 15.625 g/ha [6]: 0%
- pest or weed control at 62.5 g/ha [6]: 0%
- pest or weed control at 250 g/ha [6]: 0%
- pest or weed control at 15.625 g/ha [7]: 40%
- pest or weed control at 62.5 g/ha [7]: 70%
- pest or weed control at 250 g/ha [7]: 70%
- plant injury at 15.625 g/ha (corn (Zea mays) [8]): 60%
- plant injury at 62.5 g/ha (corn (Zea mays) [8]): 60%
- plant injury at 250 g/ha (corn (Zea mays) [8]): 80%
- pest or weed control at 15.625 g/ha [9]: 60%
- pest or weed control at 62.5 g/ha [9, 13]: 60%
- pest or weed control at 250 g/ha ([9]; 250 g ai/ha, evaluated after 13 days, 100=total damage to plant, 0=no damage to plant): 70%
- pest or weed control at 15.625 g/ha [10]: 20%
- pest or weed control at 62.5 g/ha [10]: 50%
- pest or weed control at 250 g/ha [10]: 60%
- pest or weed control at 15.625 g/ha [11]: 0%
- pest or weed control at 62.5 g/ha [11]: 20%
- pest or weed control at 250 g/ha [11]: 30%
- pest or weed control at 15.625 g/ha [12]: 10%
- pest or weed control at 62.5 g/ha [12]: 20%
- pest or weed control at 250 g/ha [12]: 30%

Structure (SMILES): CN1C[C@H](c2ccc(F)c(F)c2)[C@@H](C(=O)Nc2cnccc2C(F)(F)F)C1=O (racemic) [Compound 1740]
- pest or weed control at 15.625 g/ha [1]: 0%
- pest or weed control at 62.5 g/ha [1]: 30%
- pest or weed control at 250 g/ha [1]: 40%
- plant injury at 15.625 g/ha (corn (Zea mays) [2]): 0%
- plant injury at 62.5 g/ha (corn (Zea mays) [2]): 0%
- plant injury at 250 g/ha (corn (Zea mays) [2]): 10%
- pest or weed control at 15.625 g/ha [3]: 0%
- pest or weed control at 62.5 g/ha [3]: 60%
- pest or weed control at 250 g/ha [3]: 90%
- pest or weed control at 15.625 g/ha [4]: 0%
- pest or weed control at 62.5 g/ha [4]: 0%
- pest or weed control at 250 g/ha [4]: 0%
- pest or weed control at 15.625 g/ha [5]: 0%
- pest or weed control at 62.5 g/ha [5]: 0%
- pest or weed control at 250 g/ha [5]: 40%
- pest or weed control at 15.625 g/ha [6]: 0%
- pest or weed control at 62.5 g/ha [6]: 0%
- pest or weed control at 250 g/ha [6]: 50%
- pest or weed control at 15.625 g/ha [7]: 0%
- pest or weed control at 62.5 g/ha [7]: 0%
- pest or weed control at 250 g/ha [7]: 20%
- plant injury at 15.625 g/ha (corn (Zea mays) [8]): 0%
- plant injury at 62.5 g/ha (corn (Zea mays) [8]): 0%
- plant injury at 250 g/ha (corn (Zea mays) [8]): 0%
- pest or weed control at 15.625 g/ha [9]: 0%
- pest or weed control at 62.5 g/ha [9, 13]: 40%
- pest or weed control at 15.625 g/ha [10]: 0%
- pest or weed control at 62.5 g/ha [10]: 0%
- pest or weed control at 250 g/ha [10]: 20%
- pest or weed control at 15.625 g/ha [11]: 0%
- pest or weed control at 62.5 g/ha [11]: 0%
- pest or weed control at 250 g/ha [11]: 0%
- pest or weed control at 15.625 g/ha [12]: 0%
- pest or weed control at 62.5 g/ha [12]: 0%
- pest or weed control at 250 g/ha [12]: 10%
